Measured values: ChEMBL document CHEMBL3351341, “Discovery of a potent and selective EGFR inhibitor (AZD9291) of both sensitizing and T790M resistance mutations that spares the wild type form of the receptor” (J Med Chem, 2014)
In brackets after ≈: the same amount, converted by molar mass. Each block holds one molecule with its values, some of them ahead of it.

Columns and labels:
[1] = molecular target: Epidermal growth factor receptor (Homo sapiens, UniProt P00533, L858R/T790M); assay: Inhibition of EGFR L858R/T790M double mutant phosphorylation in human NCI-H1975 cells after 2 hrs by fluorescence assay; type: cell-based
[2] = molecular target: Epidermal growth factor receptor (Homo sapiens, UniProt P00533); assay: Inhibition of wild type EGFR phosphorylation in human LoVo cells after 2 hrs by fluorescence assay; type: cell-based
[3] = Intrinsic clearance in mouse hepatocytes measured per 10^6 cells; type: ADME, cell-based, Hepatocyte; conditions: read-out: CLH
[4] = molecular target: T1, Insulin-like growth factor 1 receptor (Homo sapiens, UniProt P08069); assay: Inhibition of IGF1R (unknown origin)
T1 sequence (P08069 31-736 limits assumed): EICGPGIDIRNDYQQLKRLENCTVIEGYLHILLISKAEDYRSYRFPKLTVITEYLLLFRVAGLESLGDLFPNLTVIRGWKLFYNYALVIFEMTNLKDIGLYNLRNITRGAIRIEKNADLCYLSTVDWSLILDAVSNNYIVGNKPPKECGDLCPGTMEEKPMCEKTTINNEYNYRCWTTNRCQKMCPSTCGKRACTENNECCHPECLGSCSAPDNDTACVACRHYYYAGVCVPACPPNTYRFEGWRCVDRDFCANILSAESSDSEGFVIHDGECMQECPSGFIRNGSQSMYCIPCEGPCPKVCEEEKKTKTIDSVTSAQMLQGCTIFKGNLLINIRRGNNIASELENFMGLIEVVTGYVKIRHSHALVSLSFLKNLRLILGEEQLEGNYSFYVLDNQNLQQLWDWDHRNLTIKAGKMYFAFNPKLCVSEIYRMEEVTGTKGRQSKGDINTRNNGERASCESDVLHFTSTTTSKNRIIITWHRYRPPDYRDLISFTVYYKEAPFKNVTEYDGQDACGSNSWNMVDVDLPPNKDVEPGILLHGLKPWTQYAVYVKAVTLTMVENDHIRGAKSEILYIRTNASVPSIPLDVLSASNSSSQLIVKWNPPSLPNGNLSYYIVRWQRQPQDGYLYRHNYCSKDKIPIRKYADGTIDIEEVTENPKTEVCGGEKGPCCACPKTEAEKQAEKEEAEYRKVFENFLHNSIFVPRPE
T1 sequence (P08069 741-1367 limits assumed): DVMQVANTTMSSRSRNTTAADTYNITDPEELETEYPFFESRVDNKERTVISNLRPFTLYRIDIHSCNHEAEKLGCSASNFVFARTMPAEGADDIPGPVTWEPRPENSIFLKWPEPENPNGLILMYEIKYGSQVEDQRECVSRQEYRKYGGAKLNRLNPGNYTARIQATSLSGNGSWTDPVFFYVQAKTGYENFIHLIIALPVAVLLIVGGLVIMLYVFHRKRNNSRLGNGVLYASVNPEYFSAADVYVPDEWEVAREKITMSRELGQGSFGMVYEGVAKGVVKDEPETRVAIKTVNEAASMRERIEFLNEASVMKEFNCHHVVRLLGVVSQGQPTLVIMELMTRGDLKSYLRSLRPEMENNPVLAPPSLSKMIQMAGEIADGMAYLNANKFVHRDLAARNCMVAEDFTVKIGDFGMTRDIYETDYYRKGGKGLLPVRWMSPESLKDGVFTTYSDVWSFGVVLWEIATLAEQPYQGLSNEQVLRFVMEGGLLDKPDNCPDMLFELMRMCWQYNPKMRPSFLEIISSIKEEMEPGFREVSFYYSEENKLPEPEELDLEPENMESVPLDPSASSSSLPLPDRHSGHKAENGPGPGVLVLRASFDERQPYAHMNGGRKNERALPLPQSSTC

[5] = molecular target: Epidermal growth factor receptor (Homo sapiens, UniProt P00533, EX19DEL); assay: Inhibition of EGFR exon 19 deletion activating mutant phosphorylation in human PC9 cells after 2 hrs by fluorescence assay; type: cell-based, PC-9
Epidermal growth factor receptor (Homo sapiens, UniProt P00533, EX19DEL), sequence (P00533 whole entry, looked up, stated change not applied): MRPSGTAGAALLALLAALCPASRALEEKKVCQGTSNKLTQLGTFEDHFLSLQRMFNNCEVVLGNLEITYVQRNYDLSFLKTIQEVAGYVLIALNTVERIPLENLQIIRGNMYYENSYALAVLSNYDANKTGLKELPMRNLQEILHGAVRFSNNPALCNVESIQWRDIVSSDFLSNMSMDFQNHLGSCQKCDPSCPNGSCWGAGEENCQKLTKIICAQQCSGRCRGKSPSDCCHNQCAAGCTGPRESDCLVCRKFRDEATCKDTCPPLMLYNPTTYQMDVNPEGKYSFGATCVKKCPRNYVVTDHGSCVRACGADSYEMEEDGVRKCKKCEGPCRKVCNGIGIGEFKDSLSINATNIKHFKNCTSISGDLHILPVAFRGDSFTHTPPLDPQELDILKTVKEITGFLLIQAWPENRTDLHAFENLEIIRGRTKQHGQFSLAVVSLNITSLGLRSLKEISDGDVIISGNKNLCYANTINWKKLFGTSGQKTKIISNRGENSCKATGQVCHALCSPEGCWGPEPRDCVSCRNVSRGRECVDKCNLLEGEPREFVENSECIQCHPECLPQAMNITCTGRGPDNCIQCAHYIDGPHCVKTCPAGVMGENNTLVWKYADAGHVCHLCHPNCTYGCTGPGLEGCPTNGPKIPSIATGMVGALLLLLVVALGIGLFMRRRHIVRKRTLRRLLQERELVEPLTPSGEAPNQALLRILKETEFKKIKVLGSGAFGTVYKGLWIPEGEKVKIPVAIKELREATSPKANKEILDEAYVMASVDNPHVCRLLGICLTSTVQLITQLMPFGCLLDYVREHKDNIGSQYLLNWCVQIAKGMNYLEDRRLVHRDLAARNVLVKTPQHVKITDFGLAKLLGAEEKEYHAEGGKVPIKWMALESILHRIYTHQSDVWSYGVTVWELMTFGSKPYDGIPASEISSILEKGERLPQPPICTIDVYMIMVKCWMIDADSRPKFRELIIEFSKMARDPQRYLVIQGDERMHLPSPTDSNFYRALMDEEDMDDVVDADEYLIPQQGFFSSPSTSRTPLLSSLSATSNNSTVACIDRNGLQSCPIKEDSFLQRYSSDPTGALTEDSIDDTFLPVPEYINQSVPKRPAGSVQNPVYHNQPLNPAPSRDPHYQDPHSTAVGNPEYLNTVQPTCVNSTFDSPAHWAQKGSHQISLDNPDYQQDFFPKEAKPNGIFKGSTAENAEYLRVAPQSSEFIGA

[6] = Thermodynamic solubility of the compound at pH 7.4; type: physicochemical; conditions: buffer, read-out: Therm_solubility
[7] = Lipophilicity, log D of the compound at pH 7.4; type: physicochemical; conditions: buffer
[8] = molecular target: Calcium/calmodulin-dependent protein kinase kinase 2 (Homo sapiens) (UniProt Q96RR4); assay: Inhibition of CAMKKbeta (unknown origin) at 1 uM relative to control
Calcium/calmodulin-dependent protein kinase kinase 2 (Homo sapiens), sequence (Q96RR4 2-588 limits assumed): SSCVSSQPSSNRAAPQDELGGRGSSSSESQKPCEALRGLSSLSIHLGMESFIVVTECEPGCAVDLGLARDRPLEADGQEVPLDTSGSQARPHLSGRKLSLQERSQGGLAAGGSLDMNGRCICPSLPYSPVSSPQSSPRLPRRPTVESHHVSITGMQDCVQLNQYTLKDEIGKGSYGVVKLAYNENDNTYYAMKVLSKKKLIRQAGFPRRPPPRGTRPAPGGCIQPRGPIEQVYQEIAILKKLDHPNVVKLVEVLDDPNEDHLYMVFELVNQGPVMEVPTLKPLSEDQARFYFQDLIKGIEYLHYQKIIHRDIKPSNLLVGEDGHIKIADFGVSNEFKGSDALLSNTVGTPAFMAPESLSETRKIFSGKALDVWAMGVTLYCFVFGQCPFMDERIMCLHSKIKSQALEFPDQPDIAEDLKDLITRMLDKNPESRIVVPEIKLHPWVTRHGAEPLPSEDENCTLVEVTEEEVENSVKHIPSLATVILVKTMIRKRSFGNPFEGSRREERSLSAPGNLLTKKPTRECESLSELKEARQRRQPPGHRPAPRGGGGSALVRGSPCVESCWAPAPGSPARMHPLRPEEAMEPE

[9] = molecular target: T1, Insulin-like growth factor 1 receptor; assay: Inhibition of IGF1R (unknown origin) at 1 uM relative to control
[10] = molecular target: Serine/threonine-protein kinase Chk2 (Homo sapiens) (UniProt O96017); assay: Inhibition of CHK2 (unknown origin) at 1 uM relative to control
Serine/threonine-protein kinase Chk2 (Homo sapiens), sequence (O96017 whole entry): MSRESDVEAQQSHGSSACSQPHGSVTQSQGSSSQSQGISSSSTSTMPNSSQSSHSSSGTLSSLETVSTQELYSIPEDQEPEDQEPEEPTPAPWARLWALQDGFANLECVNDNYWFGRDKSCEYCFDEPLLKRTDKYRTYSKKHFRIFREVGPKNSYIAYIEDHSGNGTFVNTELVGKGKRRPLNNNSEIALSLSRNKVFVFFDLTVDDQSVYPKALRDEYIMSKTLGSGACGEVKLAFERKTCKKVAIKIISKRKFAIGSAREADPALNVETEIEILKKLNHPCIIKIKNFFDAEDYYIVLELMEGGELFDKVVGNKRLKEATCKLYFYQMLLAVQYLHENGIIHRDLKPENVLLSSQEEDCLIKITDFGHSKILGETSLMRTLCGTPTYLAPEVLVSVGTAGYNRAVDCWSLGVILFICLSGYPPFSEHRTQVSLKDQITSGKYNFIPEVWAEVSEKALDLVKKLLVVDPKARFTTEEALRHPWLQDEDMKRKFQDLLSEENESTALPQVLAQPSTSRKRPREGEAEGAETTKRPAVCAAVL

Insulin receptor [11] = molecular target: T2, Insulin receptor (Homo sapiens, UniProt P06213); assay: Inhibition of INSR (unknown origin) at 1 uM relative to control
T2 sequence (P06213 28-758 limits assumed): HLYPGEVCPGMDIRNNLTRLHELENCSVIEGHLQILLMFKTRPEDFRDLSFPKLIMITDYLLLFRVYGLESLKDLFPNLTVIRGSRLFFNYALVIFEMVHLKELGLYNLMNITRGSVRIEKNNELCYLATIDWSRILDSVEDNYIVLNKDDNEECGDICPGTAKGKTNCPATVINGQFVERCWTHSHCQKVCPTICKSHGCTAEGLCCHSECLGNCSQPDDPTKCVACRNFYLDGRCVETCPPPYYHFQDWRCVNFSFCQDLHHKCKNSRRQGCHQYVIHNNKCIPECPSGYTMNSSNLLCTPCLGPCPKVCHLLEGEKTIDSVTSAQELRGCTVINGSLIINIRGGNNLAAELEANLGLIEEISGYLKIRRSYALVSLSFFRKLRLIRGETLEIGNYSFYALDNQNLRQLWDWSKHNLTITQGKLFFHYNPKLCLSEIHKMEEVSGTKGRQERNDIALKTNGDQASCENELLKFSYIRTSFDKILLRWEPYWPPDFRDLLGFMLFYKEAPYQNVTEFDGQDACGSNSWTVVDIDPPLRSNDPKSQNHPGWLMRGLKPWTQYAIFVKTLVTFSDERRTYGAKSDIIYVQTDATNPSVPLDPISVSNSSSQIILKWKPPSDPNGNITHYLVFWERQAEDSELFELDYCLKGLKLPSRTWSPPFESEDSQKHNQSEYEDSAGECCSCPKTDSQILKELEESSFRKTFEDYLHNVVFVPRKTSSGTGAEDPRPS
T2 sequence (P06213 763-1382 limits assumed): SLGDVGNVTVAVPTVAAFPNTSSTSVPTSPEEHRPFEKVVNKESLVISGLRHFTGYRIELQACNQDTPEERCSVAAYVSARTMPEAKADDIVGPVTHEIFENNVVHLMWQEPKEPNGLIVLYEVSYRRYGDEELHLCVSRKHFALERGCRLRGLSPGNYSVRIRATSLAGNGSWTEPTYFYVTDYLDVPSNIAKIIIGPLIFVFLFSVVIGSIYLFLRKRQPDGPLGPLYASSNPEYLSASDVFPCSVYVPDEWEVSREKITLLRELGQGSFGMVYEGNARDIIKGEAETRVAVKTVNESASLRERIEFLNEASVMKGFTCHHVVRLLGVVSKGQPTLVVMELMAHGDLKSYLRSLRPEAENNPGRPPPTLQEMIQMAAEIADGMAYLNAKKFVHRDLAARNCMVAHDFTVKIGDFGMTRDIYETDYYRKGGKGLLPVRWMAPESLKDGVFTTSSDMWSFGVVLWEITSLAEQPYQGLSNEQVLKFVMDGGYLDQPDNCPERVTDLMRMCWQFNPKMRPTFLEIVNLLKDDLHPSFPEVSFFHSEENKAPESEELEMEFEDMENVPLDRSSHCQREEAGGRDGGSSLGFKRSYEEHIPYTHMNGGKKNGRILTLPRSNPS

A-431 [12] = assay: Antitumor activity against human A431 cells xenografted in SCID mouse assessed as tumor growth inhibition at 10 mg/kg/day, po qd for 7 days relative to control; type: functional; conditions: Mus musculus, A-431, 168 h, read-out: TGI
A-431 [13] = assay: Antitumor activity against human A431 cells xenografted in SCID mouse assessed as tumor growth inhibition at 5 mg/kg/day, po qd for 7 days relative to control; type: functional; conditions: Mus musculus, A-431, 168 h, read-out: TGI
[14] = Fraction unbound in Han Wistar rat plasma; type: ADME, cell-free
[15] = Unbound fraction in nude mouse plasma; type: ADME, cell-free
NCI-H1975 [16] = assay: Cytotoxicity against human NCI-H1975 cells harboring EGFR L858R/[…] double mutant assessed as growth inhibition after 72 hrs by SYTOX green nucleic acid staining-based fluorescence assay; type: functional; conditions: Homo sapiens, NCI-H1975, 72 h
NCI-H1975 [17] = assay: Antitumor activity against human NCI-H1975 cells harboring EGFR L858R/[…] double mutant xenografted in SCID mouse assessed as tumor growth inhibition at 10 mg/kg/day, po qd for 7 days relative to control; type: functional; conditions: Mus musculus, NCI-H1975, 168 h, read-out: TGI
NCI-H1975 [18] = assay: Antitumor activity against human NCI-H1975 cells harboring EGFR L858R/[…] double mutant xenografted in SCID mouse assessed as tumor growth inhibition at 5 mg/kg/day, po qd for 7 days relative to control; type: functional; conditions: Mus musculus, NCI-H1975, 168 h, read-out: TGI
A-431 [19] = assay: Antitumor activity against human A431 cells xenografted in SCID mouse assessed as tumor growth inhibition at […], po qd for 7 days relative to control; type: functional; conditions: Mus musculus, A-431, 168 h, read-out: TGI
[20] = Cytotoxicity against human Calu3 cells assessed as growth inhibition after 72 hrs by SYTOX green nucleic acid staining-based fluorescence assay; type: functional, Calu-3; conditions: Homo sapiens, Calu-3, 72 h
NCI-H1975 [21] = assay: Antitumor activity against human NCI-H1975 cells harboring EGFR L858R/[…] double mutant xenografted in SCID mouse assessed as tumor growth inhibition at […], po qd for 7 days relative to control; type: functional; conditions: Mus musculus, NCI-H1975, 168 h, read-out: TGI
[22] = Cytotoxicity against human PC9 cells harboring EGFR exon 19 deletion activating mutant assessed as growth inhibition after 72 hrs by SYTOX green nucleic acid staining-based fluorescence assay; type: functional, PC-9; conditions: Homo sapiens, PC-9, 72 h
[23] = Unbound fraction in human plasma; type: ADME, cell-free
[24] = Antitumor activity against human PC9 cells harboring EGFR exon 19 deletion activating mutant xenografted in SCID mouse assessed as tumor growth inhibition at 10 mg/kg/day, po qd for 7 days relative to control; type: functional, PC-9; conditions: Homo sapiens, PC-9, 168 h, read-out: TGI
Mus musculus [25] = assay: Inhibition of EGFR L858R/[…] double mutant phosphorylation in human NCI-H1975 cells xenografted in SCID mouse at 10 mg/kg, po measured 1 hr post dose; type: functional; conditions: NCI-H1975, 1 h
Mus musculus [26] = assay: Inhibition of EGFR exon 19 deletion activating mutant phosphorylation in human PC9 cells xenografted in SCID mouse at 10 mg/kg, po measured 6 hrs post dose; type: functional; conditions: PC-9, 6 h
Mus musculus [27] = assay: Inhibition of EGFR L858R/[…] double mutant phosphorylation in human NCI-H1975 cells xenografted in SCID mouse at 10 mg/kg, po measured 30 hrs post dose; type: functional; conditions: NCI-H1975, 30 h
Mus musculus [28] = assay: Inhibition of EGFR exon 19 deletion activating mutant phosphorylation in human PC9 cells xenografted in SCID mouse at 10 mg/kg, po measured 1 hr post dose; type: functional; conditions: PC-9, 1 h
Mus musculus [29] = assay: Inhibition of EGFR L858R/[…] double mutant phosphorylation in human NCI-H1975 cells xenografted in SCID mouse at 10 mg/kg, po measured 16 hrs post dose; type: functional; conditions: NCI-H1975, 16 h
Insulin receptor [30] = molecular target: T2, Insulin receptor; assay: Inhibition of INSR (unknown origin)
Mus musculus [31] = assay: Inhibition of EGFR L858R/[…] double mutant phosphorylation in human NCI-H1975 cells xenografted in SCID mouse at 10 mg/kg, po measured 6 hrs post dose; type: functional; conditions: NCI-H1975, 6 h
Mus musculus [32] = assay: Inhibition of EGFR exon 19 deletion activating mutant phosphorylation in human PC9 cells xenografted in SCID mouse at 10 mg/kg, po measured 24 hrs post dose; type: functional; conditions: PC-9, 24 h
Mus musculus [33] = assay: Inhibition of EGFR L858R/[…] double mutant phosphorylation in human NCI-H1975 cells xenografted in SCID mouse at 10 mg/kg, po measured 24 hrs post dose; type: functional; conditions: NCI-H1975, 24 h
Mus musculus [34] = assay: Inhibition of EGFR exon 19 deletion activating mutant phosphorylation in human PC9 cells xenografted in SCID mouse at 10 mg/kg, po measured 16 hrs post dose; type: functional; conditions: PC-9, 16 h
Mus musculus [35] = assay: Inhibition of EGFR exon 19 deletion activating mutant phosphorylation in human PC9 cells xenografted in SCID mouse at 10 mg/kg, po measured 30 hrs post dose; type: functional; conditions: PC-9, 30 h

- IC50 [1]: 63 nM
- IC50 [2]: 1200 nM
- hepatocyte CLint [3]: 53 µL/min/1e6 cells
- IC50 [4]: 813 nM
- IC50 [5]: 15 nM
- solubility thermodynamic [6]: 828 µM (≈ 400 µg/mL)
SMILES: C=CC(=O)Nc1cc(Nc2nccc(-c3c[nH]c4ccccc34)n2)c(OC)cc1N1CCN(C)CC1

- logD [7]: 2.2
SMILES: C=CC(=O)Nc1cc(Nc2ncc(Cl)c(-c3cnn4ccccc34)n2)c(OC)cc1N1CCN(C(=O)[C@H]2CCCCN2)CC1

- inhibition [8]: 94%
- inhibition [9]: 98%
- inhibition [10]: 90%
- IC50 [4]: 4 nM
- inhibition (Insulin receptor [11]): 97%
SMILES: COc1ccc(NC(=O)/C=C/CN(C)C)cc1Nc1ncc(Cl)c(-c2cnn3ccccc23)n1

- fraction unbound [14]: 0.16
- fraction unbound [15]: 0.134
- logD [7]: 2.9
- IC50 [4]: 263 nM
- fraction unbound [23]: 0.075
- solubility thermodynamic [6]: 79 µM (≈ 38.4 µg/mL)
SMILES: C=CC(=O)Nc1cc(Nc2nccc(-c3c[nH]c4ccccc34)n2)c(OC)cc1N(C)CCN(C)C
- inhibition in vivo at 10 mg/kg/day (A-431 [12]): 133%
- inhibition in vivo at 5 mg/kg/day (A-431 [13]): 85%
- GI50 (NCI-H1975 [16]): 16 nM
- inhibition in vivo at 10 mg/kg/day (NCI-H1975 [17]): 123%
- inhibition in vivo at 5 mg/kg/day (NCI-H1975 [18]): 125%
- inhibition in vivo at […] (A-431 [19]): 83%
- GI50 [20]: 58 nM
- inhibition in vivo at […] (NCI-H1975 [21]): 78%
- GI50 [22]: 21 nM

- inhibition [9]: 97%
- IC50 [4]: 26 nM
- inhibition (Insulin receptor [11]): 98%
- IC50 (Insulin receptor [30]): 35 nM
SMILES: C=CC(=O)Nc1cc(Nc2ncc(Cl)c(-c3cnn4ccccc34)n2)c(OC)cc1N1CC(N(C)C)C1
- inhibition in vivo at 10 mg/kg/day [24]: 169%
- inhibition in vivo at 10 mg/kg/day (A-431 [12]): 16%
- inhibition in vivo at 10 mg/kg (Mus musculus [25]): 37%
- inhibition in vivo at 10 mg/kg (Mus musculus [26]): 85%
- inhibition in vivo at 10 mg/kg (Mus musculus [27]): 50%
- inhibition in vivo at 10 mg/kg (Mus musculus [28]): 57%
- inhibition in vivo at 10 mg/kg/day (NCI-H1975 [17]): 113%
- inhibition in vivo at 10 mg/kg (Mus musculus [29]): 82%
- inhibition in vivo at 10 mg/kg (Mus musculus [31]): 99%
- inhibition in vivo at 10 mg/kg (Mus musculus [32]): 19%
- inhibition in vivo at 10 mg/kg (Mus musculus [33]): 79%
- inhibition in vivo at 10 mg/kg (Mus musculus [34]): 52%

- inhibition [9]: 97%
- IC50 [4]: 6 nM
- inhibition (Insulin receptor [11]): 99%
- IC50 (Insulin receptor [30]): 9 nM
SMILES: C=CC(=O)Nc1cc(Nc2ncc(Cl)c(-c3cnn4ccccc34)n2)c(OC)cc1N(C)CCN(C)C
- inhibition in vivo at 10 mg/kg/day [24]: 243%
- inhibition in vivo at 10 mg/kg/day (A-431 [12]): 35%
- inhibition in vivo at 10 mg/kg (Mus musculus [25]): 89%
- inhibition in vivo at 10 mg/kg (Mus musculus [26]): 83%
- inhibition in vivo at 10 mg/kg (Mus musculus [27]): 80%
- inhibition in vivo at 10 mg/kg (Mus musculus [28]): 30%
- inhibition in vivo at 10 mg/kg (Mus musculus [35]): 10%
- inhibition in vivo at 10 mg/kg/day (NCI-H1975 [17]): 130%
- inhibition in vivo at 10 mg/kg (Mus musculus [29]): 94%
- inhibition in vivo at 10 mg/kg (Mus musculus [31]): 100%
- inhibition in vivo at 10 mg/kg (Mus musculus [32]): 38%
- inhibition in vivo at 10 mg/kg (Mus musculus [33]): 93%
- inhibition in vivo at 10 mg/kg (Mus musculus [34]): 60%

- logD [7]: 1.8
SMILES: C=CC(=O)Nc1cc(Nc2ncc(Cl)c(-c3cnn4ccccc34)n2)c(OC)cc1N1CCN(C(=O)CNC)CC1

- logD [7]: 2
SMILES: C=CC(=O)Nc1cc(Nc2ncc(Cl)c(-c3cnn4ccccc34)n2)c(OC)cc1N1CCN(C(=O)N2CCNCC2)CC1

- inhibition [8]: 92%
- inhibition [9]: 97%
- IC50 [4]: 2 nM
SMILES: C=CC(=O)Nc1cc(Nc2ncc(Cl)c(-c3cnn4ccccc34)n2)c(OC)cc1N1CCN(C)CC1
